Source: US10130615B2, “Benzomorphan analogs and the use thereof” (priority 2014, dated 2018)
Read-outs that look alike come from different tables or passages of the source.

Assays:
[1] = molecular target: T1, μ-opioid receptor (Homo sapiens, UniProt P35372); assay: biochemical; set-up: purchased Perkin Elmer, Shelton, Conn; host or cells: HEK-293 or CHO; details: HEK-293 or CHO cells; for Emax: relative to DAMGO, read-out: GTPγS μ Emax; for EC50: read-out: GTPγS μ EC50
[2] = molecular target: T2, κ-opioid receptor (Homo sapiens, UniProt P41145); assay: κ-opioid receptor radioligand binding assay ([3H]-U69,593); set-up: expressed in transfected cells; host or cells: HEK-293
Method: κ-opioid Receptor Binding Assay Procedures: Membranes from recombinant HEK-293 cells expressing the human κ opioid receptor (κ) (cloned in house) were prepared by lysing cells in ice cold hypotonic buffer (2.5 mM MgCl2, 50 mM HEPES, pH 7.4) (10 mL/10 cm dish) followed by homogenization with a tissue grinder/Teflon pestle. Membranes were collected by centrifugation at 30,000×g for 15 min at 4° C. and pellets were resuspended in hypotonic buffer to a final concentration of 1-3 mg/mL. Protein concentrations were determined using the BioRad protein assay reagent with bovine serum albumen as standard. Aliquots of κ receptor membranes were stored at −80° C.
Radioligand dose displacement assays used 0.4 nM [^3H]-U69,593 (GE Healthcare, Piscataway, N.J.; 40 Ci/mmole) with 15 μg membrane protein (recombinant κ opioid receptor expressed in HEK 293 cells; in-house prep) in a final volume of 200 μl binding buffer (5% DMSO, 50 mM Trizma base, pH 7.4). Non-specific binding was determined in the presence of 10 μM unlabeled naloxone or U69,593. All reactions were performed in 96-well polypropylene plates for 1 hr at a temperature of about 25° C.

[3] = molecular target: T1, μ-opioid receptor; assay: cell-based; set-up: purchased Perkin Elmer, Shelton, Conn; details: U2OS cells; read-out: β-Arr2 μ Emax
[4] = molecular target: T2, κ-opioid receptor; assay: κ-opioid receptor β-Arr2 activity response, U2OS cells; assay type: cell-based; set-up: expressed in transfected cells; host or cells: U-2 OS
[5] = molecular target: T1, μ-opioid receptor; assay: μ-opioid receptor GTPγS functional assay, U2OS cells; details: for Emax: read-out: GTPγS μ Emax
[6] = molecular target: T1, μ-opioid receptor; assay: μ-opioid receptor radioligand binding assay ([3H]-diprenorphine); set-up: purchased Perkin Elmer, Shelton, Conn; host or cells: HEK-293 or CHO
Method: μ-opioid Receptor Binding Assay Procedures: Radioligand dose-displacement binding assays for μ-opioid receptors used 0.3 nM [^3H]-diprenorphine (Perkin Elmer, Shelton, Conn.), with […] membrane protein/well in a final volume of 500 μl binding buffer (10 mM MgCl2, 1 mM EDTA, 5% DMSO, 50 mM HEPES, pH 7.4). Reactions were carried out in the absence or presence of increasing concentrations of unlabeled naloxone. All reactions were conducted in 96-deep well polypropylene plates for 2 hr at room temperature. […] The data were analyzed using the one-site competition curve fitting functions in GraphPad PRISM™ v. 3.0 or higher (San Diego, Calif.), or an in-house function for one-site competition curve-fitting.

[7] = molecular target: T2, κ-opioid receptor; assay: κ-opioid receptor GTPγS functional assay, U2OS cells; assay type: biochemical; set-up: expressed in transfected cells; host or cells: U-2 OS
Method: (§1) Plates were incubated for 30 min at a temperature of about 25° C. with shaking.

[8] = molecular target: T2, κ-opioid receptor; assay: κ-opioid receptor [35S]GTPγS functional assay, HEK-293 or CHO cells; assay type: biochemical; set-up: expressed in transfected cells; host or cells: HEK-293; details: for Emax: relative to U69,593
Method: as §1

[9] = HEK-293 or CHO cells, read-out: Ki (nM) Opioid Receptor κ
[10] = U2OS cells, read-out: β-Arr2 κ EC50
[11] = HEK-293 or CHO cells, read-out: Ki (nM) Opioid Receptor μ
[12] = U2OS cells, read-out: GTPγS κ EC50
[13] = HEK-293 or CHO cells, read-out: GTPγS κ EC50

T2 sequence (P41145 whole entry): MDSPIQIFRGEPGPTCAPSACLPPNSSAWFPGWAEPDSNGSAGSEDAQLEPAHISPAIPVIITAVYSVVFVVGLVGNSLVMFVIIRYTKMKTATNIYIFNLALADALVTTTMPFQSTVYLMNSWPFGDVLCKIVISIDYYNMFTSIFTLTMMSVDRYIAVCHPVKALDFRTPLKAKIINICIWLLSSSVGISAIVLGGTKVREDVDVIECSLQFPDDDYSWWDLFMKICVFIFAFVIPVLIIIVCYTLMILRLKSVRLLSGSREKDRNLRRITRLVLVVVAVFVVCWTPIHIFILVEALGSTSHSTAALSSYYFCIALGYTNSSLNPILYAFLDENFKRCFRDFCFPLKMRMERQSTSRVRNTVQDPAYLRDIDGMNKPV
T1 sequence (P35372 whole entry, species assumed): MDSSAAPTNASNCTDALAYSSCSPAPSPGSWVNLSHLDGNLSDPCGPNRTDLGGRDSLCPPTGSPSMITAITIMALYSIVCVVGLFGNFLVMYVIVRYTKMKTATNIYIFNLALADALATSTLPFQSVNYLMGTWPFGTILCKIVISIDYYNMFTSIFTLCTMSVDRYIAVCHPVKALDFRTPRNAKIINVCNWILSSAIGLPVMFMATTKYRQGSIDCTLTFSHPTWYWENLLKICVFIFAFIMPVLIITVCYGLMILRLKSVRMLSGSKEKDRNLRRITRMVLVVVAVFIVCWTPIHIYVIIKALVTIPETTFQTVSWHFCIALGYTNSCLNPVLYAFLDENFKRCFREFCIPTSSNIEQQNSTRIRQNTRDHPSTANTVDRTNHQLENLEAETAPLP

Row | Structure (SMILES) | Emax [1] | Ki [2, 9] | Emax [3] | Emax ([4]; U2OS cells) | EC50 [4, 10] | EC50 [5] | Emax [5] | Ki [6, 11] | Emax ([7]; U2OS cells) | EC50 [7, 12] | EC50 [8, 13] | Emax ([8]; HEK-293 or CHO cells) | EC50 [1] | Ki [2] | EC50 [4] | Ki [6] | EC50 [7] | EC50 [8]
1 | C[C@H]1[C@H]2Cc3ccc(O)cc3[C@]1(CCNC(=O)Cc1ccc(C(=O)O)cc1)CCN2CC1CC1 [Compound 31, 4-(2-((2-((2R,6R,11R)-3-(cyclopropyl-methyl)-8-hydroxy-11-methyl-2,3,4,5-tetrahydro-2,6-methanobenzo[d]azocin-6(1H)-yl)ethyl)amino)-2-oxoethyl)-benzoic acid] | 0% | 18.4 ± 3.6 nM | -1.25% | 29.7 ± 5.04% | 53.4 ± 8.62 nM | 8.77 ± 1.37 nM | 58 ± 4.73% | 25.1 ± 7.56 nM | 104 ± 3.48% | 18.5 ± 2.16 nM | 94.2 ± 33.8 nM | 88.7 ± 6.89% |  |  |  |  |  | 
2 | COC(=O)c1ccc(CC(=O)NCC[C@]23CCN(CC4CC4)[C@H](Cc4ccc(OC)cc42)[C@@H]3C)cc1 [Compound 30, methyl 4-(2-((2-((2R,6R,11R)-3-(cyclopropylmethyl)-8-methoxy-11-methyl-2,3,4,5-tetrahydro-2,6-methano-benzo[d]azocin-6(1H)-yl)ethyl)amino)-2-oxoethyl)benzoate] | 0% | 6.18 ± 1.72 nM | 1 ± 0.5% | -1% |  | 230 ± 27.5 nM | 51 ± 3.51% | 389 ± 124 nM | 104 ± 2.96% | 13.1 ± 1.48 nM | 259 ± 33.1 nM | 83 ± 7.77% |  |  |  |  |  | 
3 | COc1ccc2c(c1)[C@]1(CCNC(=O)CN)CCN(CC3CC3)[C@H](C2)[C@@H]1C [Compound 33, 2-amino-N-(2-((2R,6R,11R)-3-(cyclopropylmethyl)-8-methoxy-11-methyl-2,3,4,5-tetrahydro-2,6-methanobenzo[d]azocin-6(1H)-yl)ethyl)acetamide] | 92.7 ± 6.57% | 1.04 ± 0.071 nM |  | 42 ± 4% | 12.8 ± 4.1 nM | 1170 ± 247 nM | 56 ± 3.06% | 936 ± 189 nM | 108 ± 3.38% | 4.93 ± 1.06 nM | 61.2 ± 20.1 nM | 113 ± 1% | 356 ± 111 nM |  |  |  |  | 
4 | CC(C)C[C@H](NCCCC[C@]12CCN(CC3CC3)[C@H](Cc3ccc(O)cc31)[C@@H]2C)C(=O)O [Compound 24, (4-((2R,6R,11R)-3-(cyclopropyl-methyl)-8-hydroxy-11-methyl-2,3,4,5-tetrahydro-2,6-methanobenzo[d]azocin-6(1H)-yl)butyl)-L-leucine] | 19.5 ± 2.26% | 0.55 ± 0.11 nM | -0.4 ± 0.6% | 54 ± 4.06% | 3.56 ± 0.91 nM | 1.94 ± 0.28 nM | 77.3 ± 3.18% | 2.89 ± 0.63 nM | 98.3 ± 4.33% | 0.51 ± 0.072 nM | 9.32 ± 2.97 nM | 102 ± 5.57% | 5.46 ± 0.51 nM |  |  |  |  | 
5 | C[C@H]1[C@H]2Cc3ccc(O)cc3[C@]1(CCCCN[C@@H](CCCCN)C(=O)O)CCN2CC1CC1 [Compound 25, (4-((2R,6R,11R)-3-(cyclopropyl-methyl)-8-hydroxy-11-methyl-2,3,4,5-tetrahydro-2,6-methanobenzo[d]azocin-6(1H)-yl)butyl)-L-lysine] | 1% | 0.077 ± 0.014 nM | -1.4% | 50 ± 0.58% | 0.1 ± 0.019 nM | 1.29 ± 0.11 nM | 48.3 ± 0.67% | 3.58 ± 1.45 nM | 99 ± 4.58% | 0.17 ± 0.038 nM | 2.33 ± 0.51 nM | 104 ± 5.03% |  |  |  |  |  | 
6 | COc1ccc2c(c1)[C@]1(CCOCc3ccccc3)CCN(CC3CC3)[C@H](C2)[C@@H]1C [Compound 45, (2R,6S,11R)-6-(2-(benzyloxy)ethyl)-3-(cyclopropylmethyl)-8-methoxy-11-methyl-1,2,3,4,5,6-hexahydro-2,6-methanobenzo[d]azocine] | 16.3 ± 0.88% | 0.16 ± 0.03 nM | 1.33 ± 0.33% | 84 ± 2.08% | 26.7 ± 8.55 nM | 38 ± 2.09 nM | 103 ± 6.47% | 543 ± 116 nM | 96.3 ± 5.17% | 0.95 ± 0.14 nM | 16.3 ± 0.74 nM | 104 ± 5.03% | 267 ± 20.1 nM |  |  |  |  | 
7 | COC(=O)[C@H](CCCCN)NCCCC[C@]12CCN(CC3CC3)[C@H](Cc3ccc(O)cc31)[C@@H]2C [Compound 26, methyl (4-((2R,6R,11R)-3-(cyclopropyl-methyl)-8-hydroxy-11-methyl-2,3,4,5-tetrahydro-2,6-methanobenzo[d]azocin-6(1H)-yl)butyl)-L-lysinate] | 0.33 ± 0.67% | 0.053 nM | 0% | 17.5 ± 2.72% | 0.081 ± 0.019 nM | 0.51 ± 0.054 nM | 40 ± 1.73% | 0.73 ± 0.1 nM | 102 ± 3.48% | 0.14 nM | 0.19 ± 0.058 nM | 51 ± 2.04% |  |  |  |  |  | 
8 | COC(=O)[C@H](C)NCC[C@]12CCN(CC3CC3)[C@H](Cc3ccc(OC)cc31)[C@@H]2C [Compound 38, methyl (2-((2R,6R,11R)-3-(cyclopropyl-methyl)-8-methoxy-11-methyl-2,3,4,5-tetrahydro-2,6-methanobenzo[d]azocin-6(1H)-yl)ethyl)-L-alaninate] | 15.8 ± 1.03% | 0.78 ± 0.14 nM | -0.17 ± 0.93% | 70 ± 2% | 141 ± 45.5 nM | 137 ± 16.1 nM | 53 ± 3.51% | 94.7 ± 18.6 nM | 112 ± 2.91% | 2.11 ± 0.23 nM | 287 ± 30 nM | 109 ± 5.46% | 551 ± 173 nM |  |  |  |  | 
9 | COc1ccc2c(c1)[C@]1(CCO)CCN(CC3CC3)[C@H](C2)[C@@H]1C [Compound 43, 2-((2R,6S,11R)-3-(cyclopropylmethyl)-8-methoxy-11-methyl-2,3,4,5-tetrahydro-2,6-methanobenzo[d]azocin-6(1H)-yl)ethan-1-ol] | 22 ± 1.58% |  | -1% | 59.3 ± 3.18% |  | 99 ± 5.84 nM | 107 ± 5.83% |  | 102 ± 3.71% |  |  | 97.7 ± 5.36% | 1150 ± 199 nM | 3.63 ± 0.7 nM | 494 ± 140 nM | 233 ± 46.9 nM | 17.8 ± 1.45 nM | 355 ± 63.6 nM
